A short description of the series: activity coefficient (dimensionless); of the first substance listed, at infinite dilution; xn = mol fraction of the nth substance listed. To be noted: 101 kPa, Liquid, Chromatography, x1 = 0.

For 25 compounds, activity coefficient results are on record in the NIST ThermoML archive (doi:10.1016/j.jct.2012.01.019).

Numbers after ± are expanded uncertainties.

On to `Cc1ccccc1C` [1,2-dimethylbenzene] + COCC[N+]1(C)CCCCC1.O=S(=O)([N-]S(=O)(=O)C(F)(F)F)C(F)(F)F, for which the activity coefficient is, setting by setting: (318.15 K) 1.66 ± 0.11; (328.15 K) 1.68 ± 0.11; (338.15 K) 1.69 ± 0.11; (348.15 K) 1.71 ± 0.11; (358.15 K) 1.72 ± 0.12; (368.15 K) 1.73 ± 0.12.
Regarding `Cc1cccc(C)c1` [1,3-dimethylbenzene] + COCC[N+]1(C)CCCCC1.O=S(=O)([N-]S(=O)(=O)C(F)(F)F)C(F)(F)F, the activity coefficient came out at 1.8 ± 0.12 (318.15 K); 1.81 ± 0.12 (328.15 K); 1.82 ± 0.12 (338.15 K); 1.83 ± 0.12 (348.15 K); 1.85 ± 0.12 (358.15 K); 1.86 ± 0.13 (368.15 K).
On to `Cc1ccc(C)cc1` [1,4-dimethylbenzene] + COCC[N+]1(C)CCCCC1.O=S(=O)([N-]S(=O)(=O)C(F)(F)F)C(F)(F)F, for which the activity coefficient (318.15 K) was found to be 1.08 ± 0.07; the activity coefficient (328.15 K) worked out at 1.1 ± 0.07; the activity coefficient (338.15 K) came to 1.13 ± 0.07; the activity coefficient (348.15 K) came out at 1.14 ± 0.07; the activity coefficient (358.15 K) was found to be 1.16 ± 0.07; the activity coefficient (368.15 K) amounted to 1.19 ± 0.08.
With `C1COCCO1` [1,4-dioxane] + COCC[N+]1(C)CCCCC1.O=S(=O)([N-]S(=O)(=O)C(F)(F)F)C(F)(F)F, the activity coefficient runs as follows: (318.15 K) 0.616 ± 0.043; (328.15 K) 0.636 ± 0.044; (338.15 K) 0.654 ± 0.045; (348.15 K) 0.673 ± 0.046; (358.15 K) 0.687 ± 0.046; (368.15 K) 0.705 ± 0.047.
As for `C=CCCCCCCCC` [1-decene] + COCC[N+]1(C)CCCCC1.O=S(=O)([N-]S(=O)(=O)C(F)(F)F)C(F)(F)F, the activity coefficient runs as follows: (318.15 K) 36.2 ± 2.5; (328.15 K) 33.7 ± 2.3; (338.15 K) 31.4 ± 2.1; (348.15 K) 29.2 ± 2; (358.15 K) 27.4 ± 1.9; (368.15 K) 26 ± 1.8.
As for `C=CCCCCC` [1-heptene] + COCC[N+]1(C)CCCCC1.O=S(=O)([N-]S(=O)(=O)C(F)(F)F)C(F)(F)F, the activity coefficient was found to be 12.4 ± 0.8 (318.15 K); 11.9 ± 0.8 (328.15 K); 11.4 ± 0.8 (338.15 K); 10.8 ± 0.7 (348.15 K); 10.4 ± 0.7 (358.15 K); 9.99 ± 0.68 (368.15 K).
As for `C#CCCCCC` [1-heptyne] + COCC[N+]1(C)CCCCC1.O=S(=O)([N-]S(=O)(=O)C(F)(F)F)C(F)(F)F, the activity coefficient was found to be 4.22 ± 0.29 (318.15 K); 4.21 ± 0.29 (328.15 K); 4.19 ± 0.29 (338.15 K); 4.17 ± 0.28 (348.15 K); 4.15 ± 0.28 (358.15 K); 4.15 ± 0.28 (368.15 K).
As for `C#CCCCC` [1-hexyne] + COCC[N+]1(C)CCCCC1.O=S(=O)([N-]S(=O)(=O)C(F)(F)F)C(F)(F)F, the activity coefficient amounted to 2.98 ± 0.2 (318.15 K); 2.99 ± 0.2 (328.15 K); 3 ± 0.2 (338.15 K); 3.01 ± 0.2 (348.15 K); 3.02 ± 0.21 (358.15 K); 3.03 ± 0.21 (368.15 K).
On to `CCC[N+](=O)[O-]` [1-nitropropane] + COCC[N+]1(C)CCCCC1.O=S(=O)([N-]S(=O)(=O)C(F)(F)F)C(F)(F)F, for which the activity coefficient is 0.724 ± 0.048 (318.15 K); 0.725 ± 0.048 (328.15 K); 0.726 ± 0.048 (338.15 K); 0.727 ± 0.048 (348.15 K); 0.727 ± 0.048 (358.15 K); 0.728 ± 0.048 (368.15 K).
On to `C#CCCCCCC` [1-octyne] + COCC[N+]1(C)CCCCC1.O=S(=O)([N-]S(=O)(=O)C(F)(F)F)C(F)(F)F, for which the activity coefficient runs as follows: (318.15 K) 6.02 ± 0.41; (328.15 K) 5.92 ± 0.4; (338.15 K) 5.85 ± 0.4; (348.15 K) 5.77 ± 0.39; (358.15 K) 5.7 ± 0.39; (368.15 K) 5.63 ± 0.38.
Take `C=CCCC` [1-pentene] + COCC[N+]1(C)CCCCC1.O=S(=O)([N-]S(=O)(=O)C(F)(F)F)C(F)(F)F: the activity coefficient is, setting by setting: (318.15 K) 6.03 ± 0.41; (328.15 K) 5.9 ± 0.4; (338.15 K) 5.73 ± 0.39; (348.15 K) 5.6 ± 0.38; (358.15 K) 5.46 ± 0.37; (368.15 K) 5.36 ± 0.37.
Regarding `CC(C)CC(C)(C)C` [2,2,4-trimethylpentane] + COCC[N+]1(C)CCCCC1.O=S(=O)([N-]S(=O)(=O)C(F)(F)F)C(F)(F)F, the activity coefficient was determined as 23.7 ± 1.1 (318.15 K); 22.3 ± 1 (328.15 K); 20.9 ± 1 (338.15 K); 19.7 ± 0.9 (348.15 K); 18.5 ± 0.9 (358.15 K); 17.6 ± 0.8 (368.15 K).
For the compound `CCC(C)(C)C` [2,2-dimethylbutane] + COCC[N+]1(C)CCCCC1.O=S(=O)([N-]S(=O)(=O)C(F)(F)F)C(F)(F)F, the activity coefficient runs as follows: (318.15 K) 13.5 ± 0.6; (328.15 K) 12.9 ± 0.6; (338.15 K) 12.4 ± 0.6; (348.15 K) 11.8 ± 0.5; (358.15 K) 11.3 ± 0.5; (368.15 K) 10.9 ± 0.5.
As to `CCOC(C)(C)C` [2-ethoxy-2-methylpropane] + COCC[N+]1(C)CCCCC1.O=S(=O)([N-]S(=O)(=O)C(F)(F)F)C(F)(F)F, the activity coefficient was 5.82 ± 0.4 (318.15 K); 5.71 ± 0.39 (328.15 K); 5.62 ± 0.38 (338.15 K); 5.53 ± 0.38 (348.15 K); 5.44 ± 0.37 (358.15 K); 5.38 ± 0.37 (368.15 K).
For `CCC(C)(C)OC` [2-methoxy-2-methylbutane] + COCC[N+]1(C)CCCCC1.O=S(=O)([N-]S(=O)(=O)C(F)(F)F)C(F)(F)F, the activity coefficient was 3.74 ± 0.25 (318.15 K); 3.74 ± 0.25 (328.15 K); 3.73 ± 0.25 (338.15 K); 3.73 ± 0.25 (348.15 K); 3.73 ± 0.25 (358.15 K); 3.72 ± 0.25 (368.15 K).
On to `COC(C)(C)C` [2-methoxy-2-methylpropane] + COCC[N+]1(C)CCCCC1.O=S(=O)([N-]S(=O)(=O)C(F)(F)F)C(F)(F)F, for which the activity coefficient came to 2.56 ± 0.17 (318.15 K); 2.59 ± 0.18 (328.15 K); 2.63 ± 0.18 (338.15 K); 2.66 ± 0.18 (348.15 K); 2.69 ± 0.18 (358.15 K); 2.73 ± 0.19 (368.15 K).
`CC(C)CO` [2-methyl-1-propanol] + COCC[N+]1(C)CCCCC1.O=S(=O)([N-]S(=O)(=O)C(F)(F)F)C(F)(F)F: the activity coefficient by setting is: (318.15 K) 2.61 ± 0.18; (328.15 K) 2.34 ± 0.16; (338.15 K) 2.12 ± 0.14; (348.15 K) 1.92 ± 0.13; (358.15 K) 1.75 ± 0.12; (368.15 K) 1.62 ± 0.11.
As to `CC(C)(C)O` [2-methylpropan-2-ol] + COCC[N+]1(C)CCCCC1.O=S(=O)([N-]S(=O)(=O)C(F)(F)F)C(F)(F)F, the activity coefficient amounted to 1.87 ± 0.13 (318.15 K); 1.73 ± 0.12 (328.15 K); 1.61 ± 0.11 (338.15 K); 1.5 ± 0.1 (348.15 K); 1.42 ± 0.09 (358.15 K); 1.34 ± 0.09 (368.15 K).
With `CCC(C)CC` [3-methylpentane] + COCC[N+]1(C)CCCCC1.O=S(=O)([N-]S(=O)(=O)C(F)(F)F)C(F)(F)F, the activity coefficient (318.15 K) is 14.7 ± 0.7; the activity coefficient (328.15 K) came out at 13.9 ± 0.6; the activity coefficient (338.15 K) is 13.2 ± 0.6; the activity coefficient (348.15 K) came to 12.5 ± 0.6; the activity coefficient (358.15 K) is 11.9 ± 0.6; the activity coefficient (368.15 K) stood at 11.5 ± 0.5.
For the compound `C=C(C)c1ccccc1` [(1-methylethenyl)benzene] + COCC[N+]1(C)CCCCC1.O=S(=O)([N-]S(=O)(=O)C(F)(F)F)C(F)(F)F, the activity coefficient runs as follows: (328.15 K) 1.61 ± 0.11; (338.15 K) 1.66 ± 0.11; (348.15 K) 1.7 ± 0.11; (358.15 K) 1.74 ± 0.12; (368.15 K) 1.78 ± 0.12.
For `CC(C)=O` [acetone] + COCC[N+]1(C)CCCCC1.O=S(=O)([N-]S(=O)(=O)C(F)(F)F)C(F)(F)F, the activity coefficient runs as follows: (318.15 K) 0.462 ± 0.036; (328.15 K) 0.471 ± 0.037; (338.15 K) 0.48 ± 0.037; (348.15 K) 0.49 ± 0.037; (358.15 K) 0.498 ± 0.038; (368.15 K) 0.507 ± 0.038.
As to `CC#N` [acetonitrile] + COCC[N+]1(C)CCCCC1.O=S(=O)([N-]S(=O)(=O)C(F)(F)F)C(F)(F)F, the activity coefficient is 0.471 ± 0.037 (318.15 K); 0.471 ± 0.037 (328.15 K); 0.473 ± 0.037 (338.15 K); 0.473 ± 0.037 (348.15 K); 0.474 ± 0.037 (358.15 K); 0.475 ± 0.037 (368.15 K).
For `c1ccccc1` [benzene] + COCC[N+]1(C)CCCCC1.O=S(=O)([N-]S(=O)(=O)C(F)(F)F)C(F)(F)F, the activity coefficient by setting is: (318.15 K) 0.912 ± 0.058; (328.15 K) 0.922 ± 0.058; (338.15 K) 0.934 ± 0.059; (348.15 K) 0.943 ± 0.059; (358.15 K) 0.951 ± 0.06; (368.15 K) 0.961 ± 0.06.
Take `CCCCO` [butan-1-ol] + COCC[N+]1(C)CCCCC1.O=S(=O)([N-]S(=O)(=O)C(F)(F)F)C(F)(F)F: the activity coefficient runs as follows: (318.15 K) 2.72 ± 0.19; (328.15 K) 2.45 ± 0.17; (338.15 K) 2.22 ± 0.15; (348.15 K) 2.01 ± 0.14; (358.15 K) 1.85 ± 0.12; (368.15 K) 1.71 ± 0.11.
Turning to `CCC(C)O` (centres undefined) [butan-2-ol] + COCC[N+]1(C)CCCCC1.O=S(=O)([N-]S(=O)(=O)C(F)(F)F)C(F)(F)F, the activity coefficient (318.15 K) was found to be 2.26 ± 0.15; the activity coefficient (328.15 K) came out at 2.07 ± 0.14; the activity coefficient (338.15 K) is 1.89 ± 0.13; the activity coefficient (348.15 K) came out at 1.74 ± 0.12; the activity coefficient (358.15 K) was found to be 1.62 ± 0.11; the activity coefficient (368.15 K) is 1.52 ± 0.1.
